Reference: patent US12173004B2, “Pharmaceutical compositions comprising heterocycle fused gamma carboline prodrugs” (INTRA-CELLULAR THERAPIES, INC., priority 2017, dated 2024)

Key:
D1 = D1 (Homo sapiens (Human), UniProt P21728); details: read-out: Ki (nM) D1
ERK2 = ERK2 (Mus musculus (Mouse), UniProt P63085); experiment: CNS phosphoprotein profile, nucleus accumbens: ERK2; format: in vivo, mice; details: 3 mg/kg
Protocol: (§1) A comprehensive molecular phosphorylation study is also carried out to examine the central nervous system (CNS) profile of the compounds of Example 1 and Example 2. The extent of protein phosphorylation for selected key central nervous system proteins is measured in mice nucleus accumbens.
(§2) Mice were killed 30 minutes to 2 hours post-injection by focused microwave cranial irradiation, which preserves brain phosphoprotein as it exists at the time of death. Nucleus accumbens was then dissected from each mouse brain, sliced and frozen in liquid nitrogen. Samples were further prepared for phosphoprotein analysis via SDS-PAGE electrophoresis followed by phosphoprotein-specific immunoblotting, as described in Zhu H, et al., Brain Res. 2010 Jun. 25; 1342:11-23. Phosphorylation at each site was quantified, normalized to total levels of the protein (non-phosphorylated), and expressed as percent of the level of phosphorylation in vehicle-treated control mice.

[1] = target: TH (tyrosine hydroxylase) (Mus musculus (Mouse), UniProt P24529); experiment: CNS phosphoprotein profile, nucleus accumbens: TH; format: in vivo, mice; details: for increase in TH phosphorylation: Ser40, haloperidol at 2 mg/kg
Protocol: as §1, §2

D2 = D2 (Homo sapiens (Human), UniProt P14416); experiment: biochemical; details: read-out: maximum inhibition D2
D2, sequence (P14416 with tags, fused parts or gaps limits assumed): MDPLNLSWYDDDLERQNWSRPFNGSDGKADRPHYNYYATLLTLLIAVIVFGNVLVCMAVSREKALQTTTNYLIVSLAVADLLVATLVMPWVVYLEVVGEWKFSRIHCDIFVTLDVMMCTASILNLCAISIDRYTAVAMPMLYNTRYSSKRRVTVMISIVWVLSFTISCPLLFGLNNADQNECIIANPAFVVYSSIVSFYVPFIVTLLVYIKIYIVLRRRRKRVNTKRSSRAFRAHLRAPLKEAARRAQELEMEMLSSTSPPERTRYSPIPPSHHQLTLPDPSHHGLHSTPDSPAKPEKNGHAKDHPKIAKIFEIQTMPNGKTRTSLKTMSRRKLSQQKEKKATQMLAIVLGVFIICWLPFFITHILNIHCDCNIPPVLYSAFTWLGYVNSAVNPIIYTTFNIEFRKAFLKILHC

GluR1 = GluR1 (Mus musculus (Mouse), UniProt P23818); experiment: CNS phosphoprotein profile, nucleus accumbens: GluR1; format: in vivo, mice; details: 3 mg/kg
GluR1, sequence (P23818 19-907 limits assumed): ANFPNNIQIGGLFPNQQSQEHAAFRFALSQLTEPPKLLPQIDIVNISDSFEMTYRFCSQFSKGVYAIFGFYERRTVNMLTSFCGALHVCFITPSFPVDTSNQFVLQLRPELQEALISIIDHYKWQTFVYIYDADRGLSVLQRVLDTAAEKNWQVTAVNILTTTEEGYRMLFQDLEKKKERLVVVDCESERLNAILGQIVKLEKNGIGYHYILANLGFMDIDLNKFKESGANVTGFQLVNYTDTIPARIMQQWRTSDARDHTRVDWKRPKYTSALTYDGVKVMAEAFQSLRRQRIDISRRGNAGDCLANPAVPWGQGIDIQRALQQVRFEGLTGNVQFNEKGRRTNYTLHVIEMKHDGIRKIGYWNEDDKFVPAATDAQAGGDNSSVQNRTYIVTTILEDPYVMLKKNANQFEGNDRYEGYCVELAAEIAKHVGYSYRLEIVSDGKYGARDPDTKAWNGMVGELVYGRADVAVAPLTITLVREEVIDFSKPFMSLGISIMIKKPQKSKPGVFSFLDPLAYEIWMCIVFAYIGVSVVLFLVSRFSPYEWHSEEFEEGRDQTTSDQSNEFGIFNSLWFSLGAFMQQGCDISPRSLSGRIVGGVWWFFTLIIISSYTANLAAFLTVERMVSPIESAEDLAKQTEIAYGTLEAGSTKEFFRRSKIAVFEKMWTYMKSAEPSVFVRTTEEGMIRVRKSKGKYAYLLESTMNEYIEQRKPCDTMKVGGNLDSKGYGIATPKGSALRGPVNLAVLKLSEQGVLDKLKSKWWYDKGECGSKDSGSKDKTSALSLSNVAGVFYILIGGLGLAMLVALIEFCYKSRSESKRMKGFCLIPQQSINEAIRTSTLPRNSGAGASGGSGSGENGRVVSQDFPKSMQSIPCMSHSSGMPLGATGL
Protocol: as §1, §2

NR2B = NR2B (Mus musculus (Mouse), UniProt Q01097); experiment: CNS phosphoprotein profile, nucleus accumbens: NR2B; format: in vivo, mice; details: 3 mg/kg, at 30-60 minutes
NR2B, sequence (Q01097 27-1482 limits assumed): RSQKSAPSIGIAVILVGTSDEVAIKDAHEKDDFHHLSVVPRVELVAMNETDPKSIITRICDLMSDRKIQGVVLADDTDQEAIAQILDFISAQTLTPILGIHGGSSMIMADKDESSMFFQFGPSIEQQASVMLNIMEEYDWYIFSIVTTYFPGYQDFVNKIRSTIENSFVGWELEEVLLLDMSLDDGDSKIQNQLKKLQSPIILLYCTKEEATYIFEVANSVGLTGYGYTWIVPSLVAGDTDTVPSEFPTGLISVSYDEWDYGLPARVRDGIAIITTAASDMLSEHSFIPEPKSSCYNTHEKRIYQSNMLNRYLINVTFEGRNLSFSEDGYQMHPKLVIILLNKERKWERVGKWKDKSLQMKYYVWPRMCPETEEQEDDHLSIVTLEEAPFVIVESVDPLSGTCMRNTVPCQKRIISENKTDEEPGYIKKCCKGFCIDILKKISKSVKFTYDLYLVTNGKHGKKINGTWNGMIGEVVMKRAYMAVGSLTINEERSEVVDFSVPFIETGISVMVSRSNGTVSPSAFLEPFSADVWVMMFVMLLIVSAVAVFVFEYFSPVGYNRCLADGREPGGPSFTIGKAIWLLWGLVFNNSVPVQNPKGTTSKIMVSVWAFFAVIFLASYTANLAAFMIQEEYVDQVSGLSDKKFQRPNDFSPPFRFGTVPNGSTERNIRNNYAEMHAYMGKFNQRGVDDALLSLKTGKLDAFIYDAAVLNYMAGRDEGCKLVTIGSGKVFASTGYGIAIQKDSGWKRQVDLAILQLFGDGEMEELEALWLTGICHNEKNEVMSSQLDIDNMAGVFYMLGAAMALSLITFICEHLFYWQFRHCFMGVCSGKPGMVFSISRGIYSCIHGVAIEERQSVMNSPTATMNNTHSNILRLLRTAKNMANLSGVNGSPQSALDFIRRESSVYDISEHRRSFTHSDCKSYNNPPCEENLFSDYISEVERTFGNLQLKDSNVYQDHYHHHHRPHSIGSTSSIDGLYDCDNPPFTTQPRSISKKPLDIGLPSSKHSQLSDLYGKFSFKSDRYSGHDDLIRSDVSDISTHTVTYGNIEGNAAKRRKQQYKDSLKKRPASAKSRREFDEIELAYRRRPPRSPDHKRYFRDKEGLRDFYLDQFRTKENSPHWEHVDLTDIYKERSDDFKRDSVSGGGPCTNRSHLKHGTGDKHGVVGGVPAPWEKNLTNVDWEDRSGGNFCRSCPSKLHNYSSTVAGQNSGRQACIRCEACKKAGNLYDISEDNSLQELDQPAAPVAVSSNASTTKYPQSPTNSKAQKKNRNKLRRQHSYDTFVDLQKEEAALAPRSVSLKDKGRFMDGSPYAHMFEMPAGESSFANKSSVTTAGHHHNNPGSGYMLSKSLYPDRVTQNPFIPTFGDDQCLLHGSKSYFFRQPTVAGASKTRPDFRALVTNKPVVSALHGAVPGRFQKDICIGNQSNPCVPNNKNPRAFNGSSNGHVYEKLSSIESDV
Protocol: as §1, §2

5-HT2 receptor = 5-HT2 receptor (Mus musculus (Mouse), UniProt P35363); experiment: DOI-Induced Head Twitch Model in Mice; format: in vivo; details: po, p.o. 0.5 hr before DOI, read-out: EC50 (mg/kg, p.o.) for reducing DOI-induced head twitches
in vivo [2] = details: rat, iv, 1 mg/kg
rats [3] = experiment: Pulmonary function in rats; format: in vivo; details: for RR (breaths/min): 60 minutes
Mice = experiment: Mouse Marble-Burying Study (OCD Model); format: in vivo
Excerpt: The marble burying test is used to measure repetitive and anxiety-related behavior in rodents. It is based on the observation that rats and mice will bury either harmful or harmless objects in their bedding, and it has been used as an animal model to measure the effect of pharmacological interventions in treatment of repetitive behavior disorders, such as OCD.
MPEP is a selective mGluR5 glutamate receptor antagonist. […] Mice in groups (1) are orally administered the vehicle, and mice in group (4) are given an intraperitoneal injection of MPEP just prior to the start of the test.
The test is conducted in rectangular cages with 4-5 cm of wood chip bedding in a room with the window shades lowered and the door closed to minimize distractions. Fifteen clean marbles are evenly spaced on top of the bedding in three rows of five marbles. One mouse is placed in each cage. The mouse and cage is left undisturbed for 30 minutes. At the end of the test, the mouse is removed and the number of marbles buried to at least ⅔ of their depth is counted.

in vivo [4] = details: mouse
C57 mice = experiment: Formalin Paw Test (Inflammatory Pain Model); format: in vivo
rats [5] = experiment: Gastrointestinal motility, activated charcoal transit in rats; details: morphine 5 mg/kg SC
[6] = Cmpd, PO 3.0 mg/kg, 30 min prior to formalin
[7] = Cmpd, SC 0.3 mg/kg, 30 min prior to formalin
[8] = Cmpd, SC 1.0 mg/kg, 30 min prior to formalin
[9] = Cmpd, SC 3.0 mg/kg, 30 min prior to formalin
[10] = morphine 5 mg/kg SC, 30 min prior to formalin

## O=C1CN2c3c(cccc3[C@@H]3CN(CCCC(=O)c4ccc(F)cc4)CC[C@@H]32)N1 [Example 1]
D1
  Ki: 22 nM
ERK2
  ERK2 phosphorylation at Thr183 and Tyr185: slight decrease
[1]; 3 mg/kg, at 30 minutes or 60 minutes
  effect on tyrosine hydroxylase phosphorylation at Ser40: neither the compound of Example 1 nor of Example 2 has a significant effect
D2
  inhibition at […]: 47%
GluR1
  GluR1 phosphorylation at Ser845: slight increase
NR2B
  effect on NR2B phosphorylation at Tyr1472: neither the compound of Example 1 nor of Example 2 has a significant effect
5-HT2 receptor
  ED50: 0.23 mg/kg

## O=C1CN2c3c(cccc3[C@@H]3CN(CCCOc4ccc(F)cc4)CC[C@@H]32)N1 [Example 2, (6bR,10aS)-8-(3-(4-fluorophenoxy)propyl)-6b,7,8,9,10,10a-hexahydro-1H-pyrido[3′,4′:4,5]pyrrolo[1,2,3-de]quinoxalin-2(3H)-one]
In vivo [2]
  bioavailability: 100%
Rats [3]; 0.3 mg/kg s.c.
  RR (breaths/min): 181 breaths/min
Rats [3]; 1.0 mg/kg s.c.
  RR (breaths/min): 203 breaths/min
Rats [3]; 3.0 mg/kg s.c.
  RR (breaths/min): 190 breaths/min
Rats [3]; 0.3, 1.0 and 3.0 mg/kg s.c., 0, 15, 60, 120, and 240 minutes
  respiratory rate, tidal volume and minute volume compared to vehicle control: no significant differences
Mice; 0.3 mg/kg orally 30 minutes prior, of fifteen marbles, 30 min
  Marbles Buried: 9.3
In vivo [4]; brain, po, 10 mg/kg
  Tmax: 15 min
In vivo [4]; brain, sc, 0.1 mg/kg
  Tmax: 60 min
In vivo [4]; plasma, po, 10 mg/kg
  Tmax: 15 min
In vivo [4]; plasma, sc, 0.1 mg/kg
  Tmax: 30 min
5-HT2 receptor
  ED50: 0.44 mg/kg
C57 mice; [6]
  Mean Behavior Rating (0-4), 0-10 Min: 0.9
  Mean Behavior Rating (0-4), 0-6 min: 1.5
  Mean Behavior Rating (0-4), 11-40 min: 0.8
  Mean Behavior Rating (0-4), 16-40 min: 0.9
C57 mice; [7]
  Mean Behavior Rating (0-4), 0-6 min: 2.3
  Mean Behavior Rating (0-4), 11-40 min: 1.0
  Mean Behavior Rating (0-4), 16-40 min: 1.2
C57 mice; [8]
  Mean Behavior Rating (0-4), 0-10 Min: 1.3
  Mean Behavior Rating (0-4), 0-6 min: 1.9
  Mean Behavior Rating (0-4), 11-40 min: 1.0
  Mean Behavior Rating (0-4), 16-40 min: 1.1
C57 mice; [9]
  Mean Behavior Rating (0-4), 0-10 Min: 0.8
  Mean Behavior Rating (0-4), 0-6 min: 1.3
  Mean Behavior Rating (0-4), 11-40 min: 0.1
  Mean Behavior Rating (0-4), 16-40 min: 0.1
C57 mice; mouse, in vivo
  Mean Behavior Rating (0-4), 0-10 Min: 1.5

## Cc1cccc(C#Cc2ccccc2)n1 [MPEP, 2-methyl-6-(phenylethynyl)pyridine, reference compound]
Mice; 20 mg/kg intraperitoneal just prior to test, positive control
  Marbles Buried: 0.2

## CN1CC[C@]23c4c5ccc(O)c4O[C@H]2[C@@H](O)C=C[C@H]3[C@H]1C5 [Morphine, morphine, reference compound]
Rats [5]
  reduction in gastric motility: ~50%
C57 mice; [10]
  Mean Behavior Rating (0-4), 0-10 Min: 1.1
  Mean Behavior Rating (0-4), 0-6 min: 1.7
  Mean Behavior Rating (0-4), 11-40 min: 0.2
  Mean Behavior Rating (0-4), 16-40 min: 0.2

## O=C(CCCN1CCC(O)(c2ccc(Cl)cc2)CC1)c1ccc(F)cc1 [haloperidol]
[1]
  increase in TH phosphorylation: greater than 400%

## Cc1nc2n(c(=O)c1CCN1CCC(c3noc4cc(F)ccc34)CC1)CCCC2 [risperidone]
[1]
  increase in TH phosphorylation: greater than 500%
